According to patent publication US11279913B2, “Sperm processing method, apparatus and related media compositions” (Inguran, LLC, priority 2017, dated 2022):

Assays:
Assay type in all cases: cell-based
bovine sperm [1] = assay: Post-thaw visual motility of sperm sorted with different sheath fluids, Example 17 second test; settings: up to 60 mM erythritol in sheath fluid; standard post-sort handling
Method: Standard bovine sperm sorting uses sheath fluid comprising 68 mM Fructose, 80 mM Citrate and 243 mM TRIS at pH 6.80 and osmolarity 290-300 mOsm. […] Combining 88 volumes of TRIS A with 12 volumes of pure glycerol creates a solution called TRIS B (The “B Fraction”). In the case of standard sperm sorting, the “B Fraction” may optionally contain no egg yolk and may be called “[…] Fraction” still containing 12 volumes of pure glycerol. […] The pH of all media was 6.70-6.75 and the osmolarity was 290-305 mOsm. The same two bulls were used for each of two tests and were measured for post-thaw quality at the same time. The first test was done with unstained non-sorted sperm similar to standard “conventional freezing.” The second test was done using different sheath fluids for sorting sperm. The second test compared a CONTROL (standard) sheath fluid to three alternate sheath fluids (H-J). After sorting all samples were handled in the identical manner to standard sperm sorting. A 3.5 mL volume of catch fluid (TRIS A) is placed in each catch tube and sorted sperm are sorted into the catch tube to a volume of 20 mL. That volume of fluid is then cooled for 90 minutes to about 4-6° C. then an equal volume of cold […] Fraction is added. […]

bovine sperm [2] = assay: Post-thaw visual motility of unstained non-sorted sperm frozen in erythritol test media, Example 17 first test
Method: Standard bovine sperm sorting uses sheath fluid comprising 68 mM Fructose, 80 mM Citrate and 243 mM TRIS at pH 6.80 and osmolarity 290-300 mOsm. […] Combining 88 volumes of TRIS A with 12 volumes of pure glycerol creates a solution called TRIS B (The “B Fraction”). In the case of standard sperm sorting, the “B Fraction” may optionally contain no egg yolk and may be called “[…] Fraction” still containing 12 volumes of pure glycerol. […] The pH of all media was 6.70-6.75 and the osmolarity was 290-305 mOsm. The same two bulls were used for each of two tests and were measured for post-thaw quality at the same time. The first test was done with unstained non-sorted sperm similar to standard “conventional freezing.” The second test was done using different sheath fluids for sorting sperm. The first test compared control (standard media) to 7 alternate media (A-G) with compositions including various amounts of erythritol and in some cases glycine. 10 milliliters of sperm of each bull at a concentration of 100 million sperm per milliliter was cooled in standard TRIS A (control media) over 90 minutes from room temperature to about 4-6° C. Samples were then divided into 1 milliliter aliquots and 0.5 mL of cold TEST-B media was added, held for 15 minutes before an additional 0.5 mL of TEST-B media was added. […]

sorted bovine sperm = assay: Motility of sorted bovine sperm stored in CaproGLY or CaproERY at 17° C. (visual and CASA), Example 15; settings: holding times longer than 4 days; erythritol versus glycerol in Caprogen
Method: Standard Caprogen (with glycerol) is referred to as “CaproGLY” and erythritol containing Caprogen is referred to as “CaproERY.”
Preparation of media in volume of 100 mL: 95 mL of the respective media working solution is combined with 5 mL of egg yolk, stirred for 15 minutes, held overnight at 4° C., centrifuged for 60 minutes at 1200 G in 50 mL Falcon Tubes (clarified). On day of use, nitrogen gas is bubbled through the clarified media for 15 minutes.
Sorting of the sperm to be held in the two fresh extenders: Fresh Ejaculates of 3 Jersey bulls are bulk sorted according to standard proprietary sex sorting methods disclosed in other patents. In brief, sperm are washed, concentrated and resuspended in a Hepes buffered TRIS Citrate extender to normalize concentration to about […] and pH about 7.15. Each 1 mL of staining comprises: 0.150 mL of sperm solution (about 160 million sperm), 64 nanomoles of Hoechst 33342 in 8 microliters, […] of staining TALP and 100 nanomoles of FD&C food dye. […]
The formulated sperm are filled into 0.25 cc straws, sealed and stored horizontally at 17° C. for up to nine days. On the specified test days, a straw is opened and checked for visual motility (counted by eye by technician using microscope analysis on heated stage), CASA total motility and CASA progressive motility using a Hamilton Thorne IVOS system. […]

bovine sperm [3] = assay: Motility of stained unsorted bovine sperm held in Caprogen-type fresh media (fluorescent CASA), Example 14
Source text: This is with “conventional” (unsorted) sperm stained with Hoechst 33342 (to facilitate CASA using fluorescence).
The fresh extender is a media similar to Caprogen, which contains 5% (v/v) egg yolk and is bubbled with nitrogen gas prior to diluting sperm.
In Caprogen with glycerol, the concentration of glycine is 135 millimolar and the concentration of glycerol is 135 millimolar. Control Media 1 was made with these same concentrations, while the balance of test media (Media 2-7) were made with the following concentrations as shown in Table 13:
Fresh Bovine Ejaculates of 5 bulls were diluted to 160 million sperm per mL into Staining TALP, combined with Hoechst 33342 DNA stain, incubated 60 minutes at 34° C. (as standard staining for XY sperm sorting). Once stained, the sperm in TALP were diluted in the related media to a new concentration of 15 million sperm per mL and placed into 0.25 cc straws, sealed and held horizontal at 18° C. for 4 days. On each day, one straw of sperm was warmed for 15 minutes at 34° C. and the contents of about 200 microliters from the straw were combined with 100 microliters of fresh media identical to the specified test media used to hold the sperm. Sperm were analyzed on fluorescent CASA (Hamilton Thorne IVOS II) using UV illumination.

Row | SMILES | effect on sperm quality when present in sheath fluid (in words) (bovine sperm [1]) | erythritol concentration giving optimal freezing results (bovine sperm [2]) | preserving quality as seen in motility (in words) (sorted bovine sperm) | support of bovine sperm motility (in words) (bovine sperm [3]; as much as 400 millimolar Erythritol in fresh bovine extender, 4 day period) | support of sperm motility (in words) (bovine sperm [3]; up to 4 days, 135 millimolar glycerol, or its replacement with erythritol, in Caprogen fresh media)
1 | OC[C@@H](O)[C@@H](O)CO [erythritol] | beneficial to sperm quality | 15 to 50 mM | better at preserving quality as seen in motility | good support of bovine sperm motility | –
2 | OCC(O)CO [glycerol, reference compound] | – | – | – | – | beneficial for supporting sperm motility
